Assay results reported in patent publication US20220062278A1, “SMALL MOLECULE INHIBITORS OF THE ANDROGEN RECEPTOR ACTIVITY AND/OR EXPRESSION AND USES THEREOF” (Arizona Board of Regents on Behalf of the Univeristy of …, priority 2018, published 2022).

Each molecule was assayed against T1, AR (Homo sapiens, UniProt P10275) (assay: GeneBlazer assay, inhibition against AR activity). Conditions: 10 uM; Table II.
T1 sequence (P10275 669-920 limits assumed): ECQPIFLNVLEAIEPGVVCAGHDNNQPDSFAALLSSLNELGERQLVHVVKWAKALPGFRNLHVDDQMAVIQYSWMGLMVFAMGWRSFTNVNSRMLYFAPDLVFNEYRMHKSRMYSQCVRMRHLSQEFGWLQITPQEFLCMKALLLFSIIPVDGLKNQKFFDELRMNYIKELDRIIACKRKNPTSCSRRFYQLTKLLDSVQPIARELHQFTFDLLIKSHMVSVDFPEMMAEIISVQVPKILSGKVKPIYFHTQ
Type: cell-based
From the text: Tables II, III and IV show % inhibition against AR activity at 10 μm within a GeneBlazer assay, and IC50 values (nM) in GeneBlazer assay.
With CCCCn1nnnc1C(c1cccc(O)c1)N1CCN(c2c(Cl)cncc2Cl)CC1 (stereo not shown) [Compound 1, 3-((1-butyl-1H-tetrazol-5-yl)(4-(3,5-dichloropyridin-4-yl)piperazin-1-yl)methyl)phenol] the inhibition at 10 µM was 81.5%. With CC(C)(C)n1nnnc1C(c1cc2ccccc2o1)N1CCN(c2c(Cl)cncc2Cl)CC1 (stereo not shown) [Compound 2, 1-(benzofuran-2-yl(1-(tert-butyl)-1H-tetrazol-5-yl)methyl)-4-(3,5-dichloropyridin-4-yl)piperazine] the inhibition at 10 µM was 108%. CCCCn1nnnc1C(c1ccnc2ccccc12)N1CCN(c2c(Cl)cncc2Cl)CC1 (stereo not shown) [Compound 3, 4-((1-butyl-1H-tetrazol-5-yl)(4-(3,5-dichloropyridin-4-yl)piperazin-1-yl)methyl)quinoline] gave an inhibition at 10 µM of 110%. With CCCCn1nnnc1C(c1ccccc1)N1CCN(c2c(Cl)cncc2Cl)CC1 (stereo not shown) [Compound 4, 1-((1-butyl-1H-tetrazol-5-yl)(phenyl)methyl)-4-(3,5-dichloropyridin-4-yl)piperazine] the inhibition at 10 µM was 101%. Work on CCCCn1nnnc1CN1CCN(c2c(Cl)cncc2Cl)CC1 [Compound 5, 1-((1-butyl-1H-tetrazol-5-yl)methyl)-4-(3,5-dichloropyridin-4-yl)piperazine] yielded an inhibition at 10 µM of 95.2%. CCCCn1nnnc1C(C)N1CCN(c2c(Cl)cncc2Cl)CC1 (stereo not shown) [Compound 6, 1-(1-(1-butyl-1H-tetrazol-5-yl)ethyl)-4-(3,5-dichloropyridin-4-yl)piperazine] gave an inhibition at 10 µM of 95.3%. CCCCn1nnnc1C(c1cccc(OC)c1)N1CCN(c2c(Cl)cncc2Cl)CC1 (stereo not shown) [Compound 7, 1-((1-butyl-1H-tetrazol-5-yl)(3-methoxyphenyl)methyl)-4-(3,5-dichloropyridin-4-yl)piperazine] showed an inhibition at 10 µM of 108%. CCCCn1nnnc1C(c1cccc(F)c1)N1CCN(c2c(Cl)cncc2Cl)CC1 (stereo not shown) [Compound 8] gave an inhibition at 10 µM of 95.3%. CC(C)(C)n1nnnc1C(c1cccs1)N1CCN(c2c(Cl)cncc2Cl)CC1 (stereo not shown) [Compound 9] showed an inhibition at 10 µM of 104%. CCCCn1nnnc1C(c1cccs1)N1CCN(c2c(Cl)cncc2Cl)CC1 (stereo not shown) [Compound 10, 1-((1-butyl-1H-tetrazol-5-yl)(thiophen-2-yl)methyl)-4-(3,5-dichloropyridin-4-yl)piperazine] gave an inhibition at 10 µM of 98.2%. For CCCCn1nnnc1C(c1ccc2c(c1)OCO2)N1CCN(c2c(Cl)cncc2Cl)CC1 (stereo not shown) [Compound 11, 1-(benzo[d][1,3]dioxol-5-yl(1-butyl-1H-tetrazol-5-yl)methyl)-4-(3,5-dichloropyridin-4-yl)piperazine], the inhibition at 10 µM was 98.4%. For CCCCn1nnnc1C(c1ccc2[nH]ccc2c1)N1CCN(c2c(Cl)cncc2Cl)CC1 (stereo not shown) [Compound 12, 5-((1-butyl-1H-tetrazol-5-yl)(4-(3,5-dichloropyridin-4-yl)piperazin-1-yl)methyl)-1H-indole], the inhibition at 10 µM was 93.9%. With CC(C)n1nnnc1C(c1cccc(O)c1)N1CCN(c2c(Cl)cncc2Cl)CC1 (stereo not shown) [Compound 15, 3-((4-(3,5-dichloropyridin-4-yl)piperazin-1-yl)(1-isopropyl-1H-tetrazol-5-yl)methyl)phenol] the inhibition at 10 µM was 86%. CC(C)(C)n1nnnc1C(c1cccc(O)c1)N1CCN(c2c(Cl)cncc2Cl)CC1 (stereo not shown) [Compound 16, 3-((1-(tert-butyl)-1H-tetrazol-5-yl)(4-(3,5-dichloropyridin-4-yl)piperazin-1-yl)methyl)phenol] showed an inhibition at 10 µM of 102%. For Oc1cccc(C(c2nnnn2C2CCCC2)N2CCN(c3c(Cl)cncc3Cl)CC2)c1 (stereo not shown) [Compound 17, 3-((1-cyclopentyl-1H-tetrazol-5-yl)(4-(3,5-dichloropyridin-4-yl)piperazin-1-yl)methyl)phenol], the inhibition at 10 µM was 108%. Oc1cccc(C(c2nnnn2C2CCCCC2)N2CCN(c3c(Cl)cncc3Cl)CC2)c1 (stereo not shown) [Compound 18, 3-((1-cyclohexyl-1H-tetrazol-5-yl)(4-(3,5-dichloropyridin-4-yl)piperazin-1-yl)methyl)phenol] gave an inhibition at 10 µM of 110%. In the case of Oc1cccc(C(c2nnnn2Cc2ccccc2)N2CCN(c3c(Cl)cncc3Cl)CC2)c1 (stereo not shown) [Compound 19, 3-((1-benzyl-1H-tetrazol-5-yl)(4-(3,5-dichloropyridin-4-yl)piperazin-1-yl)methyl)phenol], the inhibition at 10 µM is reported as 120%. For Cc1cccc(C)c1-n1nnnc1C(c1cccc(O)c1)N1CCN(c2c(Cl)cncc2Cl)CC1 (stereo not shown) [Compound 20, 3-((4-(3,5-dichloropyridin-4-yl)piperazin-1-yl)(1-(2,6-dimethylphenyl)-1H-tetrazol-5-yl)methyl)phenol], the inhibition at 10 µM was 111%. With CCCCNC(=O)C(c1cccc(O)c1)N1CCN(c2c(Cl)cncc2Cl)CC1 (stereo not shown) [Compound 21, N-butyl-2-(4-(3,5-dichloropyridin-4-yl)piperazin-1-yl)-2-(3-hydroxyphenyl)acetamide] the inhibition at 10 µM was 93%. Molecule Oc1cccc(CN2CCN(c3c(Cl)cncc3Cl)CC2)c1 [Compound 22, 3-((4-(3,5-dichloropyridin-4-yl)piperazin-1-yl)methyl)phenol] has an inhibition at 10 µM of 68.1%. With Clc1cncc(Cl)c1N1CCN(Cc2cc3ccccc3o2)CC1 [Compound 23, 1-(benzofuran-2-ylmethyl)-4-(3,5-dichloropyridin-4-yl)piperazine] the inhibition at 10 µM was 101%. In the case of CCCCn1nnnc1C(c1cccc(O)c1)N1CCN(c2c(Cl)cccc2Cl)CC1 (stereo not shown) [Compound 25, 3-((1-butyl-1H-tetrazol-5-yl)(4-(2,6-dichlorophenyl)piperazin-1-yl)methyl)phenol], the inhibition at 10 µM is reported as 98%. In the case of CCCCn1nnnc1C(c1cccc(O)c1)N1CCN(c2ccncc2)CC1 (stereo not shown) [Compound 27, 3-((1-butyl-1H-tetrazol-5-yl)(4-(pyridin-4-yl)piperazin-1-yl)methyl)phenol], the inhibition at 10 µM is reported as 1.04%. Work on CCCCn1nnnc1C(c1cc2ccccc2o1)N1CCN(c2c(Cl)cncc2Cl)CC1 (stereo not shown) [Compound 28, 1-(benzofuran-2-yl(1-butyl-1H-tetrazol-5-yl)methyl)-4-(3,5-dichloropyridin-4-yl)piperazine] yielded an inhibition at 10 µM of 96.8%. In the case of CC(C)(C)n1nnnc1C(c1ccnc2ccccc12)N1CCN(c2c(Cl)cncc2Cl)CC1 (stereo not shown) [Compound 29, 4-((1-(tert-butyl)-1H-tetrazol-5-yl)(4-(3,5-dichloropyridin-4-yl)piperazin-1-yl)methyl)quinoline], the inhibition at 10 µM is reported as 108%. CCCCn1nnnc1C(c1ccncc1)N1CCN(c2c(Cl)cncc2Cl)CC1 (stereo not shown) [Compound 30, 1-((1-butyl-1H-tetrazol-5-yl)(pyridin-4-yl)methyl)-4-(3,5-dichloropyridin-4-yl)piperazine] showed an inhibition at 10 µM of 100%. For CC(C)(C)n1nnnc1C(c1ccncc1)N1CCN(c2c(Cl)cncc2Cl)CC1 (stereo not shown) [Compound 31, 1-((1-(tert-butyl)-1H-tetrazol-5-yl)(pyridin-4-yl)methyl)-4-(3,5-dichloropyridin-4-yl)piperazine], the inhibition at 10 µM was 91.4%. CCCCn1nnnc1C(c1ccc(OC)cc1)N1CCN(c2c(Cl)cncc2Cl)CC1 (stereo not shown) [Compound 32, 1-((1-butyl-1H-tetrazol-5-yl)(4-methoxyphenyl)methyl)-4-(3,5-dichloropyridin-4-yl)piperazine] gave an inhibition at 10 µM of 91.6%. With COc1ccc(C(c2nnnn2C(C)(C)C)N2CCN(c3c(Cl)cncc3Cl)CC2)cc1 (stereo not shown) [Compound 33, 1-((1-(tert-butyl)-1H-tetrazol-5-yl)(4-methoxyphenyl)methyl)-4-(3,5-dichloropyridin-4-yl)piperazine] the inhibition at 10 µM was 97.5%. CCCCn1nnnc1C(c1ccc(C#N)cc1)N1CCN(c2c(Cl)cncc2Cl)CC1 (stereo not shown) [Compound 34, 4-((1-butyl-1H-tetrazol-5-yl)(4-(3,5-dichloropyridin-4-yl)piperazin-1-yl)methyl)benzonitrile] gave an inhibition at 10 µM of 99.8%. CC(C)(C)n1nnnc1C(c1ccc(C#N)cc1)N1CCN(c2c(Cl)cncc2Cl)CC1 (stereo not shown) [Compound 35, 4-((1-(tert-butyl)-1H-tetrazol-5-yl)(4-(3,5-dichloropyridin-4-yl)piperazin-1-yl)methyl)benzonitrile] showed an inhibition at 10 µM of 106%. CCCCn1nnnc1C(c1ccc(F)cc1)N1CCN(c2c(Cl)cncc2Cl)CC1 (stereo not shown) [Compound 36, 1-((1-butyl-1H-tetrazol-5-yl)(4-fluorophenyl)methyl)-4-(3,5-dichloropyridin-4-yl)piperazine] was tested, and the inhibition at 10 µM was 102%. Molecule CC(C)(C)n1nnnc1C(c1ccc(F)cc1)N1CCN(c2c(Cl)cncc2Cl)CC1 (stereo not shown) [Compound 37, 1-((1-(tert-butyl)-1H-tetrazol-5-yl)(4-fluorophenyl)methyl)-4-(3,5-dichloropyridin-4-yl)piperazine] has an inhibition at 10 µM of 111%. In the case of CCCCn1nnnc1C(c1cccc2ccccc12)N1CCN(c2c(Cl)cncc2Cl)CC1 (stereo not shown) [Compound 38, 1-((1-butyl-1H-tetrazol-5-yl)(naphthalen-1-yl)methyl)-4-(3,5-dichloropyridin-4-yl)piperazine], the inhibition at 10 µM is reported as 97.6%. In the case of CC(C)(C)n1nnnc1C(c1cccc2ccccc12)N1CCN(c2c(Cl)cncc2Cl)CC1 (stereo not shown) [Compound 39, 1-((1-(tert-butyl)-1H-tetrazol-5-yl)(naphthalen-1-yl)methyl)-4-(3,5-dichloropyridin-4-yl)piperazine], the inhibition at 10 µM is reported as 107%. CCCCn1nnnc1C(c1ccc2ccccc2c1)N1CCN(c2c(Cl)cncc2Cl)CC1 (stereo not shown) [Compound 40, 1-((1-butyl-1H-tetrazol-5-yl)(naphthalen-2-yl)methyl)-4-(3,5-dichloropyridin-4-yl)piperazine] showed an inhibition at 10 µM of 87.6%. In the case of CC(C)(C)n1nnnc1C(c1ccc2ccccc2c1)N1CCN(c2c(Cl)cncc2Cl)CC1 (stereo not shown) [Compound 41, 1-((1-(tert-butyl)-1H-tetrazol-5-yl)(naphthalen-2-yl)methyl)-4-(3,5-dichloropyridin-4-yl)piperazine], the inhibition at 10 µM is reported as 108%.

Same assay, conditions: Table II
CCCCn1nnnc1C(c1cccc(O)c1)N1CCN(c2c(Cl)cncc2Cl)CC1 (stereo not shown) [Compound 1, 3-((1-butyl-1H-tetrazol-5-yl)(4-(3,5-dichloropyridin-4-yl)piperazin-1-yl)methyl)phenol] was tested, and the IC50 was 45.9 nM. CC(C)(C)n1nnnc1C(c1cc2ccccc2o1)N1CCN(c2c(Cl)cncc2Cl)CC1 (stereo not shown) [Compound 2, 1-(benzofuran-2-yl(1-(tert-butyl)-1H-tetrazol-5-yl)methyl)-4-(3,5-dichloropyridin-4-yl)piperazine] gave an IC50 of 557 nM. In the case of CCCCn1nnnc1C(c1ccnc2ccccc12)N1CCN(c2c(Cl)cncc2Cl)CC1 (stereo not shown) [Compound 3, 4-((1-butyl-1H-tetrazol-5-yl)(4-(3,5-dichloropyridin-4-yl)piperazin-1-yl)methyl)quinoline], the IC50 is reported as 523 nM. Work on CCCCn1nnnc1CN1CCN(c2c(Cl)cncc2Cl)CC1 [Compound 5, 1-((1-butyl-1H-tetrazol-5-yl)methyl)-4-(3,5-dichloropyridin-4-yl)piperazine] yielded an IC50 of 1710 nM. Work on Oc1cccc(C(c2nnnn2Cc2ccccc2)N2CCN(c3c(Cl)cncc3Cl)CC2)c1 (stereo not shown) [Compound 19, 3-((1-benzyl-1H-tetrazol-5-yl)(4-(3,5-dichloropyridin-4-yl)piperazin-1-yl)methyl)phenol] yielded an IC50 of 134 nM. CCCCn1nnnc1C(c1cccc(O)c1)N1CCN(c2c(Cl)cccc2Cl)CC1 (stereo not shown) [Compound 25, 3-((1-butyl-1H-tetrazol-5-yl)(4-(2,6-dichlorophenyl)piperazin-1-yl)methyl)phenol] showed an IC50 of 1600 nM.
